Data on seven compounds can be found in US12297184B2 (Tesaro, Inc., priority 2018, dated 2025).

≈ marks a conversion by molar mass, not a printed value.

A short description of data set [1]: Hygroscopicity by gravimetric (GVS) or dynamic (DVS) vapour sorption. As to conditions: for % Mass increase: at 90% RH, 25° C., GVS (camphorates, camsylate), DVS (mandelate); for Hygroscopicity (in words): from % mass increase at 90% RH. The class given is physicochemical. As to the method: Typically, approximately 10-20 mg of sample was placed into a mesh vapour sorption balance pan and loaded into an IGASorp Moisture Sorption Analyser balance by Hiden Analytical. The sample was subjected to a ramping profile from 40-90% relative humidity (RH) at 10% increments, maintaining the sample at each step until a stable weight had been achieved (98% step completion, minimum step length 30 minutes, maximum step length 60 minutes) at 25° C. After completion of the sorption cycle, the sample was dried using the same procedure to 0% RH, and finally taken back to the starting point of 40% RH. Two cycles were performed. The weight change during the sorption/desorption cycles were plotted, allowing for the hygroscopic nature of the sample to be determined.
Typically, approximately 10 mg of sample was placed into a mesh vapor sorption balance pan and loaded into a DVS-1/DVS Intrinsic/DVS Advantage dynamic vapor sorption balance by Surface Measurement Systems. The sample was subjected to a ramping profile from 40-90% relative humidity (RH) at 10% increments, maintaining the sample at each step until a stable weight had been achieved (dm/dt 0.004%, minimum step length 30 min, maximum step length 500 min) at 25° C. After completion of the sorption cycle, the sample was dried using the same procedure to 0% RH and then a second sorption cycle back to 40% RH. Two cycles were performed. The weight change during the sorption/desorption cycles were plotted, allowing for the hygroscopic nature of the sample to be determined.
GVS was performed on the crystalline solids produced in Examples land 3. DVS was performed on the crystalline solids produced in Example 2. Table 6 below summarizes the % mass increase observed at 90% RH for the samples.

The conditions of data set [2]: for Solubility Water / Solubility pH 1 / Solubility pH 4.5 / Solubility pH 6.8: 24 h.
Method: (§1) In an initial procedure (performed in triplicate), the salts were added in small aliquots to deionised water or to buffer solutions (10 mL) until saturation was achieved (˜20 mg was initially added), and the resulting slurry was shaken at 37° C. for 24 h. The following buffers (50 mM in each case) were used: • pH 1 25 mL KCl solution (1.49 g dissolved in 100 mL water) and 42.5 mL HCl solution (1.66 mL of concentrated HCl (˜37%) made up to 100 mL with water) were added together and made up to 100 mL with water; • pH 4.5 anhydrous sodium acetate (1.07 g) was dissolved in water (about 150 mL) before adding 5.9 mL acetic acid solution (11.6 mL glacial acetic acid made up to 100 mL with water). The resulting solution was made up to 500 mL with water; and • pH 6.8 25 mL of KH2PO4 solution (2.72 g dissolved in about 80 mL water and made up to 100 mL with water) and 11.2 mL of NaOH solution (800 mg of sodium hydroxide was dissolved and diluted to 100 mL with water) were added together and made up to 100 mL with water.
(§2) Any solids which were isolated by filtration were assessed by XRPD to determine whether the form of the material had changed.
(§3) The solubility assessment of these samples was repeated using the following procedure (samples prepared in triplicate):
(§4) The appropriate salt (30 mg) was weighed into a vial and water or buffer solution (1 mL) was added. The samples were shaken at 37° C. for 24 h. After 1 h and after about 17 h, further salt was added to the mandelate samples (except those in pH 1 buffer solution) to give an approximate 50-60 mg of solids. […] The samples were analysed as described above.
The subject of another data set is PARP activity. As to conditions: read-out: inhibition of PARP activity EC50; whole cell assay; cited from earlier work.
The test system of data set [3] is cancer cells having mutant BRCA1 and BRCA2. As to conditions: read-out: inhibition of proliferation CC50; cited from earlier work.
The conditions of data set [4]: drug substance; cited from earlier work.
A short description of a further data set: physchem. As to conditions: 37 °C, thermodynamic from solid.

Method for physchem: as §1, §2, §3, §4

For the compound `NC(=O)c1cccc2cn(-c3ccc(C4CCCNC4)cc3)nc12` [(+)-Camphorate, 2-{4-[(3S)-piperidin-3-yl]phenyl}-2H-indazole-7-carboxamide (niraparib) (1R,3S)-(+)-camphorate], the “% Mass increase” value in data set [1] is roughly 0.3%. Moreover, in data set [2], the “Solubility Water” value is on record as 0.2 mg/mL (≈ 0.624 mM), the “Solubility pH 1” value is 21.4 mg/mL, the “Solubility pH 4.5” value is recorded as 0.3 mg/mL and the “Solubility pH 6.8” value is 1.2 mg/mL.

In the case of `NC(=O)c1cccc2cn(-c3ccc(C4CCCNC4)cc3)nc12` [(−)-Camphorate, 2-{4-[(3S)-piperidin-3-yl]phenyl}-2H-indazole-7-carboxamide (niraparib) (1S,3R)-(−)-camphorate], the “% Mass increase” value in data set [1] is roughly 0.2%.

On to `NC(=O)c1cccc2cn(-c3ccc(C4CCCNC4)cc3)nc12` [Camsylate, 2-{4-[(3S)-piperidin-3-yl]phenyl}-2H-indazole-7-carboxamide (niraparib) (1S)-(+)-camsylate], for which, in data set [1], the “% Mass increase” value is reported as roughly 1.3% and the “Hygroscopicity (in words)” value was “slightly hygroscopic”. Besides, in data set [2], the “Solubility Water” value came out at 5.9 mg/mL (≈ 18.4 mM), the “Solubility pH 1” value came out at 11.5 mg/mL, the “Solubility pH 4.5” value worked out at 7.1 mg/mL and the “Solubility pH 6.8” value was 1.7 mg/mL.

On to `NC(=O)c1cccc2cn(-c3ccc(C4CCCNC4)cc3)nc12` [Mandelate, 2-{4-[(3S)-piperidin-3-yl]phenyl}-2H-indazole-7-carboxamide (niraparib) (R)-(−)-mandelate], for which, in data set [1], the “% Mass increase” value is roughly 0.07% and the “Hygroscopicity (in words)” value is listed as “not hygroscopic”. In data set [2], the “Solubility Water” value is on record as 45.4 mg/mL (≈ 142 mM), the “Solubility pH 1” value was found to be 163.1 mg/mL, the “Solubility pH 4.5” value amounted to 53.8 mg/mL and the “Solubility pH 6.8” value amounted to 7.8 mg/mL.

`NC(=O)c1cccc2cn(-c3ccc([C@@H]4CCCNC4)cc3)nc12` [Niraparib, 2-{4-[(3S)-piperidin-3-yl]phenyl}-2H-indazole-7-carboxamide]: the half-maximal effective concentration (EC50) (as a rule, the concentration at which the effect is half-maximal) with PARP activity was 4 nM. For the same compound, the CC50 in data set [3] is 10 to 100 nM.

For the compound `NC(=O)c1cccc2cn(-c3ccc([C@@H]4CCCNC4)cc3)nc12` [Tosylate, 2-{4-[(3S)-piperidin-3-yl]phenyl}-2H-indazole-7-carboxamide 4-methylbenzenesulfonate hydrate 1:1:1], the “Aqueous solubility (background statement)” value in data set [4] is “low aqueous solubility”. Moreover, in data set [4], the “Hygroscopicity (background statement)” value is on record as “non-hygroscopic”. For the same compound, the solubility (in general, the concentration that dissolves in the medium under given conditions) at 24 h in the data set “physchem” (pH 1, simulated gastric fluid, Solubility pH 1) is 0.9 mg/mL; in “physchem” (pH 6.8, aqueous buffer, Solubility pH 6.8), 0.9 mg/mL; in “physchem” (water, Solubility Water) it was 0.5 mg/mL.

In the case of camphorate, the “Hygroscopicity (in words)” value in data set [1] is listed as “not hygroscopic”. In data set [2] (comparison with tosylate salt, especially in low pH media), the “Solubility (in words, reading of Table 8)” value is recorded as “greater solubility than the tosylate salt”.
